Results published in ChEMBL document CHEMBL1821574, “Structure-activity relationships of 4-position diamine quinoline methanols as intermittent preventative treatment (IPT) against Plasmodium falciparum” (J Med Chem, 2011).
In brackets after ≈: the same amount, converted by molar mass.

Tests used:
Plasmodium falciparum [1] = assay: Antimalarial activity against chloroquine-sensitive and mefloquine-resistant Plasmodium falciparum D6 assessed as inhibition of [3H]hypoxanthine incorporation by liquid scintillation spectrometry; format: functional
Plasmodium falciparum [2] = assay: Antimalarial activity against chloroquine, mefloquine and pyrimethamine-resistant Plasmodium falciparum TM91C235 assessed as inhibition of [3H]hypoxanthine incorporation by liquid scintillation spectrometry; format: functional
Plasmodium falciparum [3] = assay: Antimalarial activity against chloroquine, mefloquine and pyrimethamine-resistant Plasmodium falciparum TM90C2A assessed as inhibition of [3H]hypoxanthine incorporation by liquid scintillation spectrometry; format: functional
Plasmodium falciparum [4] = assay: Antimalarial activity against chloroquine-sensitive and mefloquine-resistant Plasmodium falciparum D6 by SYBR Green I-based fluorescence assay; format: functional
Plasmodium falciparum [5] = assay: Antimalarial activity against chloroquine, mefloquine and pyrimethamine-resistant Plasmodium falciparum TM91C235 by SYBR Green I-based fluorescence assay; format: functional
Plasmodium falciparum [6] = assay: Antimalarial activity against chloroquine-resistant and mefloquine-sensitive Plasmodium falciparum W2 assessed as inhibition of [3H]hypoxanthine incorporation by liquid scintillation spectrometry; format: functional
[7] = Apparent permeability from apical to basolateral side of dog MDCK cells at 5 uM after 2 hrs by LC/MS/MS analysis; format: ADME, cell-based, Canis lupus familiaris

Question: Which results are given for `OC(CNCCNCc1ccncc1)c1cc(C(F)(F)F)nc2c(C(F)(F)F)cccc12` (stereo not drawn)?
Answer: IC90 (Plasmodium falciparum [1]): 0.38 µg/mL (≈ 0.829 µM); IC90 (Plasmodium falciparum [2]): > 0.5 µg/mL; IC90 (Plasmodium falciparum [3]): > 0.5 µg/mL; IC90 (Plasmodium falciparum [4]): 0.38 µg/mL (≈ 0.829 µM); IC90 (Plasmodium falciparum [5]): > 0.5 µg/mL; IC90 (Plasmodium falciparum [6]): 0.47 µg/mL (≈ 1.03 µM)

Question: For `OC(CNCCN1CCCC1)c1cc(C(F)(F)F)nc2c(C(F)(F)F)cccc12` (stereo not drawn), which IC90 (Plasmodium falciparum [1]) is on record?
Answer: Its IC90 is 0.311 µg/mL (≈ 0.738 µM).

Question: And the IC90 (Plasmodium falciparum [2])?
Answer: Its IC90 is 0.556 µg/mL (≈ 1.32 µM).

Question: And the IC90 (Plasmodium falciparum [3])?
Answer: Its IC90 is 0.835 µg/mL (≈ 1.98 µM).

Question: And the IC90 (Plasmodium falciparum [6])?
Answer: Its IC90 is 0.109 µg/mL (≈ 0.259 µM).

Question: For `CC1CCN(CC(C)(C)NCC(O)c2cc(C(F)(F)F)nc3c(C(F)(F)F)cccc23)CC1` (stereo not drawn), which IC90 (Plasmodium falciparum [1]) is on record?
Answer: Its IC90 is 0.024 µg/mL (≈ 0.0503 µM).

Question: And the IC90 (Plasmodium falciparum [2])?
Answer: The IC90 was 0.061 µg/mL (≈ 0.128 µM).

Question: And the IC90 (Plasmodium falciparum [3])?
Answer: The IC90 was 0.066 µg/mL (≈ 0.138 µM).

Question: What about the Papp A→B at 2 h, 5 µM [7] of the same compound?
Answer: Its Papp A→B at 2 h, 5 µM is 44.2 ×10⁻⁶ cm/s.

Question: What about the IC90 (Plasmodium falciparum [4]) of the same compound?
Answer: Its IC90 is 0.017 µg/mL (≈ 0.0356 µM).

Question: And the IC90 (Plasmodium falciparum [5])?
Answer: Its IC90 is 0.034 µg/mL (≈ 0.0712 µM).

Question: And the IC90 (Plasmodium falciparum [6])?
Answer: The IC90 was 0.007 µg/mL (≈ 0.0147 µM).

Question: Which results are given for `CC(CCN1CCOCC1)NCC(O)c1cc(C(F)(F)F)nc2c(C(F)(F)F)cccc12` (stereo not drawn)?
Answer: IC90 (Plasmodium falciparum [1]): 0.036 µg/mL (≈ 0.0773 µM); IC90 (Plasmodium falciparum [2]): 0.055 µg/mL (≈ 0.118 µM); IC90 (Plasmodium falciparum [3]): 0.095 µg/mL (≈ 0.204 µM); IC90 (Plasmodium falciparum [6]): 0.011 µg/mL (≈ 0.0236 µM)

Question: For `OC(CNCC1CCNC1)c1cc(C(F)(F)F)nc2c(C(F)(F)F)cccc12` (stereo not drawn), which IC90 (Plasmodium falciparum [1]) is on record?
Answer: The IC90 was 3.1 µg/mL (≈ 7.61 µM).

Question: What about the IC90 (Plasmodium falciparum [2]) of the same compound?
Answer: Its IC90 is 4.27 µg/mL (≈ 10.5 µM).

Question: And the IC90 (Plasmodium falciparum [3])?
Answer: Its IC90 is 4.37 µg/mL (≈ 10.7 µM).

Question: And the IC90 (Plasmodium falciparum [6])?
Answer: Its IC90 is 2.04 µg/mL (≈ 5.01 µM).

Question: Which IC90 (Plasmodium falciparum [1]) does the source give for `OC(CNC[C@]12CCC[C@H]1CNC2)c1cc(C(F)(F)F)nc2c(C(F)(F)F)cccc12` (stereo partly drawn) here?
Answer: The IC90 was 0.159 µg/mL (≈ 0.355 µM).

Question: What about the IC90 (Plasmodium falciparum [2]) of the same compound?
Answer: The IC90 was 0.419 µg/mL (≈ 0.936 µM).

Question: And the IC90 (Plasmodium falciparum [3])?
Answer: The IC90 was 0.429 µg/mL (≈ 0.959 µM).

Question: What about the IC90 (Plasmodium falciparum [6]) of the same compound?
Answer: Its IC90 is 0.852 µg/mL (≈ 1.9 µM).

Question: With `OC(CNC[C@@]12CCC[C@@H]1CNC2)c1cc(C(F)(F)F)nc2c(C(F)(F)F)cccc12` (stereo partly drawn) as the compound, how does the IC90 (Plasmodium falciparum [1]) read?
Answer: Its IC90 is 0.165 µg/mL (≈ 0.369 µM).

Question: What about the IC90 (Plasmodium falciparum [2]) of the same compound?
Answer: Its IC90 is 0.433 µg/mL (≈ 0.968 µM).

Question: What about the IC90 (Plasmodium falciparum [3]) of the same compound?
Answer: Its IC90 is 0.358 µg/mL (≈ 0.8 µM).

Question: What about the IC90 (Plasmodium falciparum [6]) of the same compound?
Answer: Its IC90 is 0.885 µg/mL (≈ 1.98 µM).

Question: For `CC(CN1CCCC1)NCC(O)c1cc(C(F)(F)F)nc2c(C(F)(F)F)cccc12` (stereo not drawn), which IC90 (Plasmodium falciparum [1]) is on record?
Answer: Its IC90 is 0.039 µg/mL (≈ 0.0896 µM).

Question: What about the IC90 (Plasmodium falciparum [2]) of the same compound?
Answer: The IC90 was 0.079 µg/mL (≈ 0.181 µM).

Question: And the IC90 (Plasmodium falciparum [3])?
Answer: The IC90 was 0.071 µg/mL (≈ 0.163 µM).

Question: And the Papp A→B at 2 h, 5 µM [7]?
Answer: The Papp A→B at 2 h, 5 µM was 33.1 ×10⁻⁶ cm/s.

Question: And the IC90 (Plasmodium falciparum [4])?
Answer: The IC90 was 0.008 µg/mL (≈ 0.0184 µM).

Question: And the IC90 (Plasmodium falciparum [5])?
Answer: Its IC90 is 0.055 µg/mL (≈ 0.126 µM).

Question: What about the IC90 (Plasmodium falciparum [6]) of the same compound?
Answer: Its IC90 is 0.011 µg/mL (≈ 0.0253 µM).

Question: With `CC1CC(C)CN(CCNCC(O)c2cc(C(F)(F)F)nc3c(C(F)(F)F)cccc23)C1` (stereo not drawn) as the compound, how does the IC90 (Plasmodium falciparum [1]) read?
Answer: The IC90 was 0.005 µg/mL (≈ 0.0108 µM).

Question: And the IC90 (Plasmodium falciparum [2])?
Answer: Its IC90 is 0.01 µg/mL (≈ 0.0216 µM).

Question: And the IC90 (Plasmodium falciparum [3])?
Answer: The IC90 was 0.011 µg/mL (≈ 0.0237 µM).

Question: And the Papp A→B at 2 h, 5 µM [7]?
Answer: The Papp A→B at 2 h, 5 µM was 32.7 ×10⁻⁶ cm/s.

Question: And the IC90 (Plasmodium falciparum [4])?
Answer: The IC90 was 0.01 µg/mL (≈ 0.0216 µM).

Question: And the IC90 (Plasmodium falciparum [5])?
Answer: Its IC90 is 0.056 µg/mL (≈ 0.121 µM).

Question: And the IC90 (Plasmodium falciparum [6])?
Answer: Its IC90 is less than 0.001 µg/mL.

Question: Which results are given for `CN1CCCC(C(NCC(O)c2cc(C(F)(F)F)nc3c(C(F)(F)F)cccc23)C2CCCN(C)C2)C1` (stereo not drawn)?
Answer: IC90 (Plasmodium falciparum [1]): 0.746 µg/mL (≈ 1.4 µM); IC90 (Plasmodium falciparum [2]): 0.903 µg/mL (≈ 1.7 µM); IC90 (Plasmodium falciparum [3]): 0.983 µg/mL (≈ 1.85 µM); IC90 (Plasmodium falciparum [6]): 0.28 µg/mL (≈ 0.526 µM)

Question: With `CN(C)CC(C)(C)NCC(O)c1cc(C(F)(F)F)nc2c(C(F)(F)F)cccc12` (stereo not drawn) as the compound, how does the IC90 (Plasmodium falciparum [1]) read?
Answer: Its IC90 is 0.098 µg/mL (≈ 0.231 µM).

Question: What about the IC90 (Plasmodium falciparum [2]) of the same compound?
Answer: The IC90 was 0.142 µg/mL (≈ 0.335 µM).

Question: What about the IC90 (Plasmodium falciparum [3]) of the same compound?
Answer: The IC90 was 0.165 µg/mL (≈ 0.39 µM).

Question: And the IC90 (Plasmodium falciparum [6])?
Answer: Its IC90 is 0.03 µg/mL (≈ 0.0709 µM).

Question: Which IC90 (Plasmodium falciparum [1]) does the source give for `O=C1NCCC1N(CCNCC(O)c1cc(C(F)(F)F)nc2c(C(F)(F)F)cccc12)C1CCNC1=O` (stereo not drawn) here?
Answer: The IC90 was greater than 0.5 µg/mL.

Question: And the IC90 (Plasmodium falciparum [2])?
Answer: Its IC90 is greater than 0.5 µg/mL.

Question: What about the IC90 (Plasmodium falciparum [3]) of the same compound?
Answer: Its IC90 is greater than 0.5 µg/mL.

Question: And the IC90 (Plasmodium falciparum [6])?
Answer: The IC90 was 0.487 µg/mL (≈ 0.913 µM).

Question: With `NCCCNCCNCC(O)c1cc(C(F)(F)F)nc2c(C(F)(F)F)cccc12` (stereo not drawn) as the compound, how does the IC90 (Plasmodium falciparum [1]) read?
Answer: The IC90 was 0.38 µg/mL (≈ 0.895 µM).

Question: And the IC90 (Plasmodium falciparum [2])?
Answer: Its IC90 is greater than 0.5 µg/mL.

Question: What about the IC90 (Plasmodium falciparum [3]) of the same compound?
Answer: The IC90 was greater than 0.5 µg/mL.

Question: What about the IC90 (Plasmodium falciparum [6]) of the same compound?
Answer: The IC90 was greater than 0.5 µg/mL.
